Values joined by “and” are separate entries in the source; they are usually repeats but may differ in a detail not shown here. Equal values may be shown once. Read-outs that look alike come from different tables or passages of the source.
Assays:
HT29 colon = experiment: MTT growth inhibition, 72 h, HT29; assay type: cell-based, human
U87 glioblastoma = experiment: MTT growth inhibition, 72 h, U87; assay type: cell-based
MCF7 breast [1] = experiment: MTT growth inhibition, 72 h, MCF7; assay type: cell-based; details: MCF7, MTT, 72 h
A2780 ovarian [2] = experiment: MTT growth inhibition, 72 h, A2780; assay type: cell-based
A431 skin = experiment: MTT growth inhibition, 72 h, A431; assay type: cell-based
SJG2 glioblastoma = experiment: MTT growth inhibition, 72 h, SJG2; assay type: cell-based
MIA pancreas = experiment: MTT growth inhibition, 72 h, MIA; assay type: cell-based
[3] = test system: non-tumour derived MCF10A breast line; experiment: MTT growth inhibition, 72 h, MCF10A; assay type: cell-based
[4] = test system: ADDP ovarian variant (cisplatin-resistant A2780 clone); experiment: MTT growth inhibition, 72 h, ADDP; assay type: cell-based; details: ADDP, MTT, 72 h
multiple cell lines = experiment: MTT growth inhibition, over all cell lines tested; assay type: cell-based
HT29 colon cells = experiment: ROS production, DCFDA/H2DCFDA cellular ROS assay; assay type: cell-based, human; details: treatment at GI50 concentration (TBHP positive control 20 μM)
Description: To determine the presence of ROS in treated cells, a DCFDA/H2DCFDA-cellular ROS Assay Kit (Abcam, Cambridge, MA, USA) was utilised, as previously reported. The ROS potential of platinum(II) precursors and platinum(IV) scaffolds, which were determined using the same method, were also presented in this study for comparison.
Additionally, the ROS potential of the platinum(II) precursors and platinum(IV) scaffolds was determined previously and was presented here to allow for comparison (Table 10 and Figure 13). […] Treatment with the complexes and ligands was completed at each specific GI50 concentration. […]
dimethylthiazol-2-yl]-2,5-diphenyltetrazolium bromide) assay and absorbance was read at 540 nm. An eight-point dose response curve was produced from which the GI50 value was calculated, representing the drug concentration at which cell growth was inhibited by 50% based on the difference between the optical density values on day 0 and those at the end of drug exposure.
4. Reactive Oxygen Species (ROS) Potential
A total of 25,000 cells/mL of HT29 cells in DMEM were seeded in 96-well plates. Cells were washed with 1X kit buffer, and then stained with 25 μM 2’,7’-dichlorofluorescein diacetate (DCFH-DA) and incubated for 45 min. DCFH-DA was then removed, and cells were then re-washed with 1X kit buffer, after which phenol red free media was added.
Cells were then treated with a GI50 drug concentration for each complex. The plates were directly scanned to measure fluorescence (relative fluorescence units (RFU)) at different time points using the Glo-Max®-Multimode microplate reader (Promega Corporation, Alexandra, VIC, Australia) at an excitation/emission of 485/535 nm. […]

MCF7 breast [5] = test system: MCF7 breast; parameters: method as in PMID 36296713, PMID 36142383; details: cited from earlier work
A2780 ovarian [6] = test system: A2780 ovarian; parameters: method as in PMID 36296713, PMID 36142383; details: cited from earlier work
Du145 prostate = test system: Du145 prostate; parameters: method as in PMID 36296713, PMID 36142383; details: cited from earlier work
[7] = Reduction with ascorbic acid (AsA) in PBS followed by 1H-NMR and 1D-195Pt-NMR; assay type: physicochemical; details: 37 °C; for Reduction Times T50%: estimated 50% reduction; for Reduction Times T50% / Reduction Times T100%: PBS in D2O; for Reduction Times T100%: estimated 100% reduction; for time of complete reduction to platinum(II) precursor: final 1D-195Pt-NMR at 400 ppm
Description: The reduction behaviour of 1–6 was probed via ^1H-NMR and 1D-^195Pt-NMR spectroscopy, as previously described (see Supplementary Materials).
The reduction behaviour of 1–6 was monitored by ^1H-NMR and 1D-^195Pt-NMR spectroscopy using previously established methods. Prior to the reduction measurements, each metal complex was dissolved with PBS in D2O only.
Based on the initial 1D-^195Pt-NMR spectra acquired (Figures S62 and S63), the structural integrity of the complexes was retained, and no signs of reduction were observed, thus also confirming that the PBS had no effect on the complexes. Subsequently, AsA was added in each solution containing the metal complex, PBS and D2O. Then, sequential ^1H-NMR experiments were undertaken for 1 h, followed by final 1D-^195Pt-NMR experiments measured within the regions of 400 and −2800 ppm (Figures S64–S75). The approximate time points for 1–6 at which an estimated 50 and 100% reduction had occurred, in the presence of AsA, as represented by T50% and T100%, are summarised in Table 8.
A sequence of 1H-NMR experiments was carried out for 1 h at 37 °C, followed by 1D-195Pt-NMR within the regions of –2800 and 400 ppm. An amount of 10 mM PBS (~7.4 pH) was transferred to a vial and reduced to dryness through rotary evaporation. AsA (~1 mg) was combined with the metal complex (~5 mg) and transferred to the vial containing the dried PBS. 600 μL of D2O was then added to the vial to dissolve the complex, AsA and the PBS together. Each reaction was followed at 37 °C until the complete reduction […]
The cell lines tested were: HT29 colon, U87 glioblastoma, MCF-7 breast, A2780 ovarian, H460 lung, A431 skin, Du145 prostate, BE2-C neuroblastoma, SJ-G2 glioblastoma, MIA pancreas, ADDP ovarian variant, and the non-tumour derived MCF10A breast line. In […]
agents were prepared in DMSO (30 mM stock solutions) and stored at −20 °C until use.
All cell lines were cultured in a humidified atmosphere 5% carbon dioxide at 37 °C. The cancer cell lines were maintained in Dulbecco’s modified Eagle’s medium (DMEM) (Trace Biosciences, Sydney, NSW, Australia) supplemented with 10% foetal bovine serum, 10 mM sodium bicarbonate penicillin (100 IU mL−1), streptomycin (100 μg mL−1) and glutamine (4 mM). The non-cancer MCF10A cell line was cultured in DMEM:F12 (1:1) cell culture media, 5% heat inactivated horse serum, supplemented with penicillin (50 IU mL−1), streptomycin (50 μg mL−1), 20 mM 4-(2-hydroxyethyl)-1-piperazineethanesulfonic acid (HEPES), L-glutamine (2 mM), epidermal growth factor (20 ng mL−1), hydrocortisone (500 ng mL−1), cholera toxin (100 ng mL−1) and insulin (10 μg mL−1). Cytotoxicity was determined by plating cells in duplicate in […] medium at a density of 2500 – 4000 cells per well in 96 well plates. On day 0 (24 h after plating) when the cells were in logarithmic growth, 100 μL of medium with or without the test agent

[8] = all cell lines, MTT, 72 h, read-out: GI50 values over the cell lines tested
[9] = mean over all cell lines tested, read-out: Mean GI50 Values

Row | Structure (SMILES) | GI50 (U87 glioblastoma) [nM] | GI50 (MIA pancreas) [nM] | GI50 (multiple cell lines; [9]) [nM] | ROS Production (HT29 colon cells; HT29, 24 h) [RFU] | ROS Production (HT29 colon cells; HT29, 48 h) [RFU] | ROS Production (HT29 colon cells; HT29, 72 h) | GI50 (MCF7 breast [5]) [nM] | GI50 (A2780 ovarian [6]) [nM] | GI50 (Du145 prostate) [nM] | GI50 (HT29 colon) [nM] | GI50 (MCF7 breast [1]) [nM] | GI50 (A2780 ovarian [2]) [nM] | GI50 (A431 skin) [nM] | GI50 (SJG2 glioblastoma) [nM] | GI50 [3] [nM] | GI50 [4] [nM] | Reduction Times T50% [7] [min] | Reduction Times T100% [7] | other results
1 | COc1ccc2c(c1)c(CC(=O)OCC(=O)O)c(C)n2C(=O)c1ccc(Cl)cc1 [ACE, acemetacin] | > 50000 | > 50000 | > 50000 | 279 ± 7 | 260 ± 9 | 132 ± 13 RFU | – | – | – | – | – | – | – | – | – | – | – | – | GI50 (HT29 colon; Homo sapiens, HT-29): > 50000 nM; GI50 (MCF7 breast [1]; Homo sapiens): > 50000 nM; GI50 (A2780 ovarian [2]; Homo sapiens): > 50000 nM; GI50 (A431 skin; Homo sapiens, A-431): > 50000 nM; GI50 (SJG2 glioblastoma; SJ-G2): > 50000 nM; GI50 ([3]; Homo sapiens, MCF-10A): > 50000 nM; GI50 ([4]; Cisplatin-resistant A2780): > 50000 nM; GI50 (multiple cell lines; [8]): > 50000 nM
2 | N.N.[Cl][Pt][Cl] [Cisplatin, cis-diamminedichloroplatinum(II)] | – | – | – | 299 ± 25 | 370 ± 22 | 392 ± 21 RFU | 6500 ± 800 | 1000 ± 100 | 1200 ± 100 | – | – | – | – | – | – | – | – | – | –
3 | COc1ccc2cc([C@H](C)C(=O)[O][Pt+2]3([OH])[N]4C=CC=c5ccc6c(c54)[N]3C=CC=6)ccc2c1.N[C@H]1CCCC[C@@H]1N [Complex 1, [Pt^IV(phen)(SS-DACH)(NPX)(OH)]^2+] | 2570 ± 440 | 660 ± 100 | 931 ± 139 | 235 ± 23 | 215 ± 19 | 63 RFU and 63 ± 7 RFU | – | – | – | 400 ± 23 | 1120 ± 342 | 420 ± 50 | 1020 ± 390 | 1570 ± 67 | 450 ± 24 | 400 ± 19 | 20 to 25 | post 60 min | –
4 | COc1ccc2cc([C@H](C)C(=O)[O][Pt+2]3([OH])[N]4C=CC=c5cc(C)c6c(c54)[N]3C=CC=6)ccc2c1.N[C@H]1CCCC[C@@H]1N (some centres unmarked) [Complex 2, [Pt^IV(5-Mephen)(SS-DACH)(NPX)(OH)]^2+] | 1330 ± 190 | 370 ± 54 | 490 ± 75 | 290 ± 17 | 261 ± 15 | 84 RFU and 84 ± 9 RFU | – | – | – | 210 ± 19 | 720 ± 240 | 290 ± 56 | 530 ± 180 | 620 ± 43 | 310 ± 12 | 280 ± 27 | 10 to 15 | post 60 min | time of complete reduction to platinum(II) precursor [7]: ~ 1.5 h
5 | COc1ccc2cc([C@H](C)C(=O)[O][Pt+2]3([OH])[N]4C=CC=c5c(C)c(C)c6c(c54)[N]3C=CC=6)ccc2c1.N[C@H]1CCCC[C@@H]1N [Complex 3, [Pt^IV(5,6-Me2phen)(SS-DACH)(NPX)(OH)]^2+] | 180 ± 23 | 47 ± 7 | 84 ± 12 | 297 ± 21 | 287 ± 11 | 104 RFU and 104 ± 15 RFU | – | – | – | 28 ± 6 | 60 ± 22 | 39 ± 9 | 75 ± 33 | 230 ± 18 | 36 ± 4 | 25 ± 2 | 10 to 15 | post 60 min | time of complete reduction to platinum(II) precursor [7]: ~ 1.5 h
6 | Cc1cc2c3c4c1=CC=C[N]4[Pt+2][N]3C=CC=2.N[C@H]1CCCC[C@@H]1N [Complex 5MESS] | – | – | – | – | – | – | 200 ± 12 | 61 ± 10 | 22 ± 3 | – | – | – | – | – | – | – | – | – | –
7 | Cc1c(C)c2cccnc2c2ncccc12.N[C@H]1CCCC[C@@H]1N.[Pt] [Complex 56MESS, [Pt^II(5,6-Me2phen)(SS-DACH)]^2+] | – | – | – | – | – | – | 93 ± 44 | 76 ± 57 | 4.6 ± 0.4 | – | – | – | – | – | – | – | – | – | –
8 | COc1ccc2cc([C@H](C)C(=O)O)ccc2c1 [NPX, naproxen] | > 50000 | > 50000 | > 50000 | 187 ± 12 | 178 ± 13 | 15 ± 5 RFU | – | – | – | – | – | – | – | – | – | – | – | – | GI50 (HT29 colon; Homo sapiens, HT-29): > 50000 nM; GI50 (MCF7 breast [1]; Homo sapiens): > 50000 nM; GI50 (A2780 ovarian [2]; Homo sapiens): > 50000 nM; GI50 (SJG2 glioblastoma; SJ-G2): > 50000 nM; GI50 ([3]; Homo sapiens, MCF-10A): > 50000 nM; GI50 ([4]; Cisplatin-resistant A2780): > 50000 nM; GI50 (multiple cell lines; [8]): > 50000 nM
9 | C1=C[N]2[Pt+2][N]3C=CC=c4ccc(c2c43)=C1.N[C@H]1CCCC[C@@H]1N [PHENSS] | – | – | – | – | – | – | 1500 ± 500 | 230 ± 30 | 100 ± 38 | – | – | – | – | – | – | – | – | – | –
